From PubChem BioAssay (NCI)
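Dose response: 5 concentrations. Exposure: 48 h. Format: 96-well plates. Endpoint: linear interpolation; highest concentration if not reached. GI50 is the concentration that inhibits growth by half. The concentration for full growth arrest is given as TGI.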

Columns and labels:
Test in all cases: growth of human tumour cells (NCI), 48 h
[1] = tested on: NCI-H23 lung
[2] = tested on: NCI-H460 lung
[3] = tested on: NCI-H522 lung
[4] = tested on: NCI/ADR-RES ovarian
[5] = tested on: OVCAR-3 ovarian
[6] = tested on: OVCAR-4 ovarian
[7] = tested on: OVCAR-5 ovarian
[8] = tested on: OVCAR-8 ovarian
[9] = tested on: PC-3 prostate
[10] = tested on: RPMI-8226 leukemia
[11] = tested on: RXF 393 renal
[12] = tested on: SF-268 CNS
[13] = tested on: SF-295 CNS
[14] = tested on: SF-539 CNS
[15] = tested on: SK-MEL-2 melanoma
[16] = tested on: SK-MEL-28 melanoma
[17] = tested on: SK-MEL-5 melanoma
[18] = tested on: SK-OV-3 ovarian
[19] = tested on: SN12C renal
[20] = tested on: SNB-19 CNS
[21] = tested on: SNB-75 CNS
[22] = tested on: SR leukemia
[23] = tested on: SW-620 colon
[24] = tested on: TK-10 renal
[25] = tested on: U251 CNS
[26] = tested on: UACC-257 melanoma
[27] = tested on: UACC-62 melanoma
[28] = tested on: UO-31 renal

COc1ccc2[nH]c(C(=O)OCc3ccc4c(Cl)cc(Cl)c(O)c4n3)cc2c1 showed a GI50 [1] of 1570 nM, a TGI [1] of 3370 nM and a GI50 [2] of 1750 nM. For the same molecule, the TGI [2] was 3450 nM, the GI50 [3] was 1190 nM and the TGI [3] was 2990 nM. For the same molecule, the GI50 [4] was 2080 nM, the TGI [4] was 8160 nM and the GI50 [5] was 513 nM. It also gave a TGI [5] of 1830 nM, a GI50 [6] of 1490 nM and a TGI [6] of 2920 nM. It also gave a GI50 [7] of 1490 nM, a TGI [7] of 2900 nM and a GI50 [8] of 1150 nM. For the same molecule, the TGI [8] was 2600 nM, the GI50 [9] was 990 nM and the TGI [9] was 2570 nM. For the same molecule, the GI50 [10] was 803 nM, the TGI [10] was 3860 nM and the GI50 [11] was 407 nM. The TGI [11] was 1760 nM, the GI50 [12] was 1420 nM and the TGI [12] was 2770 nM. For the same molecule, the GI50 [13] was 5120 nM, the TGI [13] was 18000 nM and the GI50 [14] was 1250 nM. The TGI [14] was 2500 nM, the GI50 [15] was 1610 nM and the TGI [15] was 3370 nM. For the same molecule, the GI50 [16] was 1670 nM, the TGI [16] was 3030 nM and the GI50 [17] was 1650 nM. It also gave a TGI [17] of 3020 nM, a GI50 [18] of 4060 nM and a TGI [18] of 17700 nM. It also gave a GI50 [19] of 1240 nM, a TGI [19] of 2510 nM and a GI50 [20] of 2180 nM. It also gave a TGI [20] of 5690 nM, a GI50 [21] of 251 nM and a TGI [21] of 1780 nM. It also gave a GI50 [22] of 380 nM, a TGI [22] of 3700 nM and a GI50 [23] of 814 nM. It also gave a TGI [23] of 2310 nM, a GI50 [24] of 1680 nM and a TGI [24] of 3050 nM. It also gave a GI50 [25] of 1550 nM, a TGI [25] of 2940 nM and a GI50 [26] of 1640 nM. For the same molecule, the TGI [26] was 4230 nM, the GI50 [27] was 1330 nM and the TGI [27] was 2610 nM. The GI50 [28] was 378 nM and the TGI [28] was 1960 nM.
